Laboratory results: patent publication US20110020312A1, “METHODS FOR TREATMENT OF METABOLIC DISORDERS USING EPIMETABOLIC SHIFTERS, MULTIDIMENSIONAL INTRACELLULAR MOLECULES, OR ENVIRONMENTAL INFLUENCERS” (priority 2009, published 2011)

How the values were obtained:
Bcl-2 = experiment: Western blot of building block components, Bcl-2 expression in Skmel-28 melanoma cells; format: cell-based; design: key to Bcl-2 expression: X: a decrease in Bc1-2 expression for most of the concentrations and combinations tested as depicted in the table below; conditions: for Bcl-2 reduction or Caspase-3 increase: 500 nM, 1 μM, 25 μM and 50 μM
Experimental: (§1) Skmel-28 melanoma cells were cultured in DMEM/F12 supplemented with 5% Fetal Bovine Serum (FBS) and 1× final concentration of Antibiotics. The cells were grown to 85% confluency and treated with building block components for 3, 6, 12 and 24 hours. The cells were then pelleted and a Western blot analysis was performed.
(§2) The test building block components included L-Phenylylalanine, DL-Phenylyalanine, D-Phenylylalanine, L-Tyrosine, DL-Tyrosine, D-Tyrosine, 4-Hydroxy-phenylpyruvate, phenylacetate, 3-methoxy-4-hydroxymandelate (vanillylmandelate or VMA), vanillic acid, 4-hydroxy-benzoate, pyridoxine, panthenol, mevalonic acid, Acetylglycine, Acetyl-CoA, Farnesyl, and 2,3-Dimethoxy-5-methyl-p-benzoquinone.
(§3) In the Western Blot Analysis, the cells were pelleted in cold PBS, lysed, and the protein levels were quantified using a BCA protein assay. The whole cell lysate was loaded in a 4% loading 12% running Tris-HCl gel. The proteins were then transferred to a nitrocellulose paper then blocked with a 5% milk Tris-buffered solution for 1 hour. The proteins were then exposed to primary antibodies (Bcl-2 and Caspase-3) overnight. The nitrocellulose paper was then exposed to Pico Chemilluminescent for 5 min and the protein expression was recorded. After exposure, actin was quantified using the same method. Using ImageJ the levels of protein expression were quantified. A t-Test was used to analyze for statistical significance.

[1] = tested on: Succinate Dehydrogenase (SDH) Subunit B; experiment: Western blot, Succinate Dehydrogenase B in mitochondrial preparations; format: cell-based; conditions: NCIE0808 Mitopreps, 50 uM, 3 h
Experimental: The above blots were stripped by incubating for 30 minutes with methanol, followed by two 10 minute washes with TBS-T, then 30 minutes of incubation with Stripping buffer at 50 deg C., and followed by two washes with 100 ml or more of TBS-T for 30′ each. The blots were scanned in laser scanner to check for complete stripping. The blots were activated with methanol for 5 seconds, washed with water for 5 minutes, and TBST for 15 minutes. The blots were blocked for 1 hour with 5% blocking reagent in TBS-T at room temperature and then washed 3 times with TBS-T (1×-15′; 2×5′ each) and probed with the primary antibody for PKM2, SDHB or SDHC in 5% BSA in TBS-T by incubation overnight at 4 deg C. with gentle shaking. The primary antibody for SDHC (ABNOVA H00006391-MO2; antimouse) was at 1:500 dilution. The primary antibody for SDHB was from Abcam ab4714-200; antimouse; at 1:1000 dilution. The primary antibody for Pyruvate Kinase M2 (PKM2) was from Novus Biologicals H00005315-D0IP; antirabbit; at 1:500 dilution. After incubation with primary antibodies, the membranes were washed 3 times with TBS-T (1×-15′; 2×5′ each) and probed with the secondary antibody (SDHB & C antimouse; and PKM2 antirabbit; 1:10,000 dilution) for 1 h on the orbital tilting shaker at room temperature. After 1 h of incubation, the blots were washed 3 times with TBS-T (1×-15′; 2×5′ each) and incubated with ECF reagent for 5 minutes and then each blot scanned with 5100 Fuji Laser scanner at 25 uM resolution, 16 bit, green laser, at 400V and at 500 V.

Caspase-3 = experiment: Western blot of building block components, Caspase-3 expression in Skmel-28 melanoma cells; format: cell-based
Experimental: as §1, §2, §3

cancer cells = conditions: cited from earlier work
HDFa cells = experiment: Extracellular acidification rate (ECAR), SeaHorse XF analyzer; format: cell-based, human; conditions: HDFa
Description: Environmental influencers (e.g., MIMs or Epi-shifters) may also be identified by changes in cellular energetics. One example of the measurement of cellular energetics are the real-time measures of the consumption of molecular oxygen and/or the change in pH of the media of a cell culture. For example, the ability of a potential epi-shifter to modulate the metabolic state of a cell may be analyzed using, for example, the XF24 Analyzer (Seahorse, Inc.). This technology allows for real time detection of oxygen and pH changes in a monolayer of cells in order to evaluate the bioenergetics of a cell microenvironment. The XF24 Analyzer measures and compares the rates of oxygen consumption (OCR), which is a measure of aerobic metabolism, and extracellular acidification (ECAR), which is a measure of glycolysis, both key indicators of cellular energetics.
(SeaHorse Biosciences Inc, North Billerica, Mass.).
In this experiment, the OCR and extracellular acidification rate (ECAR) in normal cells lines were obtained in the presence and absence of CoQ10 to determine baseline values. It was observed that in its native nutrient environment, the basal OCR rates in normal cells lines are different, and are usually a function of the physiological roles of the cells in the body.
Table 51 below describes the ECAR values (mpH/min) in HDFa cells in the presence or absence of CoQ10 under normoxic and hypoxic conditions at 5.5 mM and 22 mM glucose.

[2] = tested on: neonatal fibroblast cells; experiment: Cell proliferation assay (coulter counter); format: cell-based; conditions: HB 500 nM, 5 μM, 25 μM, alone or with benzoquinone 25, 50, 100 μM; 24 hours
Experimental: A cell proliferation assay was also performed on neonatal fibroblast cells. […] The cells were trypsinized and quantified using a coulter counter.

Melanoma cells = experiment: Cell proliferation assay (live cell count) of building block combinations; format: cell-based
Experimental: Cell Proliferation Assay of the Combination of 4-Hydroxy-Benzoate with Benzoquinone: This set of experiments used a cell proliferation assay to assess the effect of combining different building block molecules on cell proliferation.
The first study examined the effect of combining 4-Hydroxy-Benzoate with Benzoquinone. Cells were incubated for 48 hours, after which a cell count was performed for the live cells. Each test group was compared to the control, and each combination groups were compared to Benzoquinone control. The compounds were statistically analyzed for the addition of Benzoquinone.
Additional studies were performed testing additional molar ratios. For the first test 4-Hydroxybenzoic were tested at concentrations of 500 nM, 1 μM, and 50 μM. These concentrations were tested in combination with 2,3-Dimethoxy-5-methyl-p-benzoquinone (Benzo). The concentration of Benzo tested were 25 μM, 50 μM, and 100 μM. Melanoma cells were grown to 80% confluency and seeded in 6 well plates at a concentration of 40K cells per well. The cells were treated with CoQ10, 4-Hydroxybenzoate, Benzo, and a combination of 4-Hydroxybenzoate/Benzo.
A T-test was performed with p<0.05 as statistically significant.

## CC(C)(CO)[C@@H](O)C(=O)NCCCO [Panthenol]
Bcl-2; 25 μM
  Bcl-2 expression: significant reduction

## COC1=C(OC)C(=O)C(C/C=C(\C)CC/C=C(\C)CC/C=C(\C)CC/C=C(\C)CC/C=C(\C)CC/C=C(\C)CC/C=C(\C)CC/C=C(\C)CC/C=C(\C)CCC=C(C)C)=C(C)C1=O [Coezyme Q10]
[1]
  Succinate Dehydrogenase B Average Normalized Volume: 634

## N[C@H](Cc1ccccc1)C(=O)O [D-Phenylalanine]
Caspase-3; 5 μM and 100 μM, 6 hours
  Caspase-3 expression: significant increase
Bcl-2; 5 μM and 25 μM, 3 hours
  Bcl-2 expression: significant reduction
Bcl-2; 5 μM, 25 μM and 100 μM, 6 hours
  Bcl-2 expression: significant reduction

## C[C@@](O)(CCO)CC(=O)O [Mevalonic Acid]
Bcl-2
  Bcl-2 reduction or Caspase-3 increase: no significant reduction in Bcl-2 expression or an increase in Caspase-3 expression

## N[C@@H](Cc1ccccc1)C(=O)O [L-Phenylalanine]
Caspase-3; 25 μM, 12 hours
  Caspase-3 expression: statistically significant increase
Bcl-2; 5 μM, 3 hr
  Bcl-2 expression: X
Bcl-2; 5 μM, 6 hours
  Bcl-2 expression: statistically significant decrease
Bcl-2; 25 μM, 3 hr
  Bcl-2 expression: X
Bcl-2; 25 μM, 6 hr
  Bcl-2 expression: X
Bcl-2; 25 μM, 12 hours
  Bcl-2 expression: statistically significant decrease
Bcl-2; 100 μM, 3 hours and 12 hours incubation
  Bcl-2 expression: statistically significant decrease
Bcl-2; 100 μM, 3 hr
  Bcl-2 expression: X
Bcl-2; 100 μM, 6 hr
  Bcl-2 expression: X
Bcl-2; 100 μM, 24 hr
  Bcl-2 expression: X

## COc1cc(C(O)C(=O)O)ccc1O (stereo not drawn) [VMA, 3-methoxy-4-hydroxymandelate]
Bcl-2; 100 nM to 100 μM
  apoptotic effect (Bcl-2/Caspase-3 Western blot): no statistically significant apoptotic effect
  trend of Bcl-2 expression: downward trend

## NC(Cc1ccccc1)C(=O)O (racemic) [DL-Phenylalanine]
Caspase-3; 3 hours, concentration not stated (5, 25, 100 μM tested)
  Caspase-3 expression: statistically significant increase
Bcl-2; 24 hours, concentration not stated (5, 25, 100 μM tested)
  Bcl-2 expression: statistically significant decrease

## C=C1/C(=C\C=C2/CCC[C@]3(C)[C@@H]([C@H](C)CCCC(C)(C)O)CC[C@@H]23)C[C@@H](O)C[C@@H]1O [Vitamin D3, 1α, 25-dihydroxyvitamin D3]
Cancer cells; reported (Deeb et al. 2007)
  expression of anti-apoptotic proteins BCL2 and BCL-XL: repressing the expression
  expression of pro-apoptotic proteins (BAX, BAK and BAD): inducing the expression
  gene transcription of cyclin-dependent kinase inhibitor p21WAFI/CIPI: induce gene transcription
Cancer cells; reported (Masuda and Jones, 2006)
  expression of vascular endothelial growth factor (VEGF): inhibit the expression

## Cc1ncc(CO)c(CO)c1O [Pyridoxine]
Bcl-2; 24 hours (5, 25, 100 μM tested)
  Bcl-2 expression: significant reduction

## COc1cc(C(=O)O)ccc1O [Vanillic Acid, Vanillic acid]
Caspase-3; 15 μM, 24 hours
  Caspase-3 expression: significant increase
Bcl-2; 500 nM and 5 μM, 24 hour
  Bcl-2 expression: significantly reduce
Bcl-2; 15 μM, 3 hours
  Bcl-2 expression: reduction

## COC1=C(OC)C(=O)C(C/C=C(\C)CC/C=C(\C)CC/C=C(\C)CC/C=C(\C)CC/C=C(\C)CC/C=C(\C)CC/C=C(\C)CC/C=C(\C)CC/C=C(\C)CCC=C(C)C)=C(C)C1=O [compound 31510]
HDFa cells; Hypoxia (5.5 mM), 50 μM
  ECAR: 5 mpH/min
HDFa cells; Hypoxia (5.5 mM), 100 μM
  ECAR: 5 mpH/min
HDFa cells; Hypoxia (22 mM), 50 μM
  ECAR: 6 mpH/min
HDFa cells; Hypoxia (22 mM), 100 μM
  ECAR: 8 mpH/min
HDFa cells; Normoxia (5.5 mM), 50 μM
  ECAR: 6 mpH/min
HDFa cells; Normoxia (5.5 mM), 100 μM
  ECAR: 6 mpH/min
HDFa cells; Normoxia (22 mM), 50 μM
  ECAR: 5 mpH/min
HDFa cells; Normoxia (22 mM), 100 μM
  ECAR: 5 mpH/min

## O=C(O)c1ccc(O)cc1 [4-Hydroxybenzoate]
[2]
  fibroblast cell number (toxicity in normal cells): did not show a significant reduction
Bcl-2; 15 μM, 24 hours
  Bcl-2 expression: significant reduction
Melanoma cells; 48 hours incubation
  cell number vs control: significant decrease
Melanoma cells; treatment medium containing HB (500 nM, 1 μM, 50 μM)
  cell proliferation: significant decrease

## N[C@@H](Cc1ccc(O)cc1)C(=O)O [L-Tyrosine]
Caspase-3; 500 nM, 12 hours
  Caspase-3 expression: statistically significant increase
Bcl-2; 5 μM, 24 hours
  Bcl-2 expression: statistically significant decrease
Bcl-2; 500 μM and 5 μM (so in the source), 24 hours
  Bcl-2 expression: statistically significant decrease

## N[C@H](Cc1ccc(O)cc1)C(=O)O [D-Tyrosine]
Caspase-3; 1 μM, 12 and 24 hour
  Caspase-3 expression: increase
Caspase-3; 5 μM, 3, 12 and 24 time periods
  Caspase-3 expression: significantly increased
Bcl-2; 5 μM and 15 μM, 12 and 24 hours
  Bcl-2 expression: reduction

## O=C(O)C(=O)Cc1ccc(O)cc1 [4-Hydroxy-phenylpyruvate]
Caspase-3; 5 μM and 15 μM, 12 hours
  Caspase-3 expression: significant increase
Bcl-2; 5 μM and 15 μM, 24 hours
  Bcl-2 expression: significant reduction

## CC(=O)NCC(=O)O [Acetylglycine]
Bcl-2; 5 μM and 25 μM, 12 hours
  Bcl-2 expression: significant decrease
Bcl-2; 100 μM, 24 hour
  Bcl-2 expression: significant decrease

## CC(=O)SCCNC(=O)CCNC(=O)[C@H](O)C(C)(C)COP(=O)(O)OP(=O)(O)OC[C@H]1O[C@@H](n2cnc3c(N)ncnc32)[C@H](O)[C@@H]1OP(=O)(O)O [Acetyl-CoA]
Bcl-2
  Bcl-2 reduction or Caspase-3 increase: no significant observed reduction in Bcl-2 or increase in Caspase-3 expression

## NC(Cc1ccc(O)cc1)C(=O)O (racemic) [DL-Tyrosine]
Caspase-3; 5 μM and 15 μM, 12 hours
  Caspase-3 expression: increase
Bcl-2; 1 μM and 15 μM, 12 hours
  Bcl-2 expression: statistical decrease
Bcl-2; 5 μM, 24 hour (DL-Tyrosine series)
  Bcl-2 expression: statistical decrease
